Assay results reported in doi:10.1101/2020.10.13.337584v1 (bioRxiv, 2020).

Legend:
[1] = Health-related side-effects after daily intranasal administration; type: in vivo; conditions: 0.1 mg/Kg intranasal daily for 10 days, BALB/C mice
[2] = test system: SARS-CoV2 (SARS CoV-2 USA_WA1/2020) in VERO E6 cells; type: cell-based

**Q.** With `CC(C)[C@H](NC(=O)CNC(=O)[C@H](CC(N)=O)NC(=O)[C@@H](NC(=O)[C@@H]1CCCN1C(=O)[C@H](CCC(N)=O)NC(=O)[C@H](Cc1ccccc1)NC(=O)CNC(=O)[C@H](Cc1ccc(O)cc1)NC(=O)CCCC[C@@H]1SC[C@@H]2NC(=O)N[C@@H]21)[C@@H](C)O)C(=O)NCC(=O)N[C@@H](Cc1ccc(O)cc1)C(=O)N[C@@H](CCC(N)=O)C(=O)N1CCC[C@H]1C(=O)O` [KEpTide 1] as the compound, how does the “Skin roughness or diarrhea at the end of day 10” value [1] read?
**A.** did not see other health issue

**Q.** What about the “Effect on heart rate” value ([1]; n=6 per group, p = 0.0758) of the same compound?
**A.** did not cause any loss

**Q.** What about the “Effect on respiratory health (oxygen saturation)” value ([1]; n=6 per group, p = 0.3217) of the same compound?
**A.** did not cause any loss

**Q.** What about the “Effect on body temperature” value ([1]; n=6 per group, p = 0.5541) of the same compound?
**A.** did not cause any loss

**Q.** What about the “Grey density (1:20) of crystal violet staining of agar monolayer” value [2] of the same compound?
**A.** 34 ± 32.73
